From US7807703B2, “Substituted aryl ketones” (Bayer CropScience AG, priority 2002, dated 2010)

Test: log P determination by reversed-phase HPLC (EEC Directive 79/831 Annex V.A8; acidic or neutral mobile phase)
Type: physicochemical
Settings: HPLC, reversed-phase C18, 43° C.; acidic range a): 0.1% aqueous phosphoric acid, acetonitrile, linear gradient 10% to 90% acetonitrile
In short: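 Reversed-phase C18 HPLC per EEC Directive 79/831 Annex V.A8 at 43° C. Linear gradient of 10% to 90% acetonitrile, run against 0.1% aqueous phosphoric acid for the acidic range (a) or 0.01 molar aqueous phosphate buffer for the neutral range (b).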
With CCN(Cc1c(Cl)ccc(C(=O)C2C(=O)CC(C)CC2=O)c1OC)S(C)(=O)=O (stereo not drawn) [Example 474] the logP was “(I-2) logP = 2.81^a)”.
For CCN(Cc1c(S(C)(=O)=O)ccc(C(=O)C2C(=O)CC(C)CC2=O)c1Cl)S(C)(=O)=O (stereo not drawn) [Example 475], the logP was “(I-2) logP = 2.32^a)”.
With COc1c(C(=O)C2C(=O)CC(C)CC2=O)ccc(Cl)c1CN(C)S(C)(=O)=O (stereo not drawn) [Example 476] the logP was “(I-2) logP = 2.56^a)”.
With COc1c(C(=O)C2C(=O)CCCC2=O)ccc(Cl)c1CN(C)OC [Example 477] the logP was “logP = 2.63^a)”.
In the case of COc1c(C(=O)c2cnn(C)c2O)ccc(Cl)c1CN(C)OC [Example 478], the logP is reported as “logP = 1.90^a)”.
With CCn1ncc(C(=O)c2ccc(Cl)c(CN(C)OC)c2OC)c1O [Example 479] the logP was “logP = 2.35^a)”.
In the case of CCN(Cc1c(Cl)ccc(C(=O)c2cnn(C)c2O)c1Cl)OC [Example 480], the logP is reported as “logP = 2.46^a)”.
In the case of CCN(Cc1c(Cl)ccc(C(=O)C2C(=O)CCC(C)(C)C2=O)c1Cl)OC (stereo not drawn) [Example 481], the logP is reported as “(I-2) logP = 4.95^a)”.
For COc1c(C(=O)C2C(=O)CC(C)CC2=O)ccc(Cl)c1CN(C)OC (stereo not drawn) [Example 482], the logP was “(I-2) logP = 3.09^a)”.
In the case of CCN(Cc1c(Cl)ccc(C(=O)C2C(=O)CCCC2=O)c1OC)OC [Example 483], the logP is reported as “logP = 3.19^a)”.
In the case of CCN(Cc1c(Cl)ccc(C(=O)C2C(=O)CCC(C)(C)C2=O)c1OC)OC (stereo not drawn) [Example 484], the logP is reported as “(I-2) logP = 2.30^a)”.
With CCN(Cc1c(Cl)ccc(C(=O)c2cnn(CC)c2O)c1OC)OC [Example 485] the logP was “logP = 2.97^a)”.
In the case of CCN(Cc1c(Cl)ccc(C(=O)c2cnn(C)c2O)c1OC)OC [Example 486], the logP is reported as “logP = 2.44^a)”.

Same assay, conditions: HPLC, reversed-phase C 18, 43° C.; acidic range: 0.1% aqueous phosphoric acid, acetonitrile (marked a) or acidic)
In the case of CONCc1c(S(C)(=O)=O)ccc(C(=O)OC)c1Cl [VIII-21], the “log P (acidic)” value is reported as “logPacidic = 1.69”.
In the case of COC(=O)c1ccc(S(C)(=O)=O)c(CN(C)OC)c1Cl [VIII-22], the “log P (acidic)” value is reported as “logPacidic = 2.31”.
For CCN(Cc1c(S(C)(=O)=O)ccc(C(=O)OC)c1Cl)OC [VIII-23], the “log P (acidic)” value was “logPacidic = 2.74”.
For COC(=O)c1ccc(S(C)(=O)=O)c(CN(Cc2ccccc2)OC)c1Cl [VIII-24], the “log P (acidic)” value was “logPacidic = 3.42”.
For COC(=O)c1ccc(S(C)(=O)=O)c(CN(OC)C(C)C)c1Cl [VIII-25], the “log P (acidic)” value was “logPacidic = 3.13”.
In the case of COC(=O)c1ccc(Cl)c(OCCNS(C)(=O)=O)c1C [VIII-26], the “log P (acidic)” value is reported as “logPacidic = 2.14”.
With CCS(=O)(=O)NCCOc1c(Cl)ccc(C(=O)OC)c1C [VIII-27] the “log P (acidic)” value was “logPacidic = 2.37”.
With COC(=O)c1ccc(Br)c(OCCNS(C)(=O)=O)c1C [VIII-28] the “log P (acidic)” value was “logPacidic = 2.20”.
In the case of CCS(=O)(=O)NCCOc1c(Br)ccc(C(=O)OC)c1C [VIII-29], the “log P (acidic)” value is reported as “logPacidic = 2.46”.
With COC(=O)c1ccc(S(C)(=O)=O)c(OCCNS(C)(=O)=O)c1Cl [VIII-30] the “log P (acidic)” value was “logPacidic = 1.56”.
With CCS(=O)(=O)NCCOc1c(S(C)(=O)=O)ccc(C(=O)OC)c1Cl [VIII-31] the “log P (acidic)” value was “logPacidic = 1.75”.
With COC(=O)c1ccc(Br)c(OCCNS(C)(=O)=O)c1Br [VIII-32] the “log P (acidic)” value was “logPacidic = 2.13”.
With COC(=O)c1ccc(S(C)(=O)=O)c(CN(C)OCC2CC2)c1Cl [VIII-33] the “log P (acidic)” value was “logPacidic = 2.98”.
For COC(=O)c1ccc(S(C)(=O)=O)c(CN(CC2CC2)OC)c1Cl [VIII-34], the “log P (acidic)” value was “logPacidic = 3.18”.
In the case of C=CCN(Cc1c(S(C)(=O)=O)ccc(C(=O)OC)c1Cl)OC [VIII-35], the “log P (acidic)” value is reported as “logPacidic = 2.87”.
With CCN(CC)C(=O)CN(Cc1c(S(C)(=O)=O)ccc(C(=O)OC)c1Cl)OC [VIII-36] the “log P (acidic)” value was “logPacidic = 2.28”.
With COC(=O)c1ccc(S(C)(=O)=O)c(CN(OC)C(C)C2CC2)c1Cl (stereo not drawn) [VIII-37] the “log P (acidic)” value was “logPacidic = 3.58”.
With COC(=O)c1ccc(S(C)(=O)=O)c(CN(OC)C2CCCC2)c1Cl [VIII-38] the “log P (acidic)” value was “logPacidic = 3.67”.
With COC(=O)c1ccc(S(C)(=O)=O)c(CN(OC)C(C)=O)c1Cl [VIII-39] the “log P (acidic)” value was “logPacidic = 1.58”.
In the case of COC(=O)c1ccc(S(C)(=O)=O)c(CN(OC)C2CCSCC2)c1Cl [VIII-40], the “log P (acidic)” value is reported as “logPacidic = 3.20”.
With COC(=O)c1ccc(S(C)(=O)=O)c(CN(Cc2ccccn2)OC)c1Cl [VIII-41] the “log P (acidic)” value was “logPacidic = 1.17”.
In the case of COC(=O)c1ccc(S(C)(=O)=O)c(CN(Cc2cccnc2)OC)c1Cl [VIII-42], the “log P (acidic)” value is reported as “logPacidic = 1.16”.
With CCON(C)Cc1c(S(C)(=O)=O)ccc(C(=O)OC)c1Cl [VIII-43] the “log P (acidic)” value was “logPacidic = 2.64”.
In the case of CCON(Cc1c(S(C)(=O)=O)ccc(C(=O)OC)c1Cl)C(C)C [VIII-44], the “log P (acidic)” value is reported as “logPacidic = 3.52”.
For COC(=O)c1ccc(S(C)(=O)=O)c(CN(C)OC(C)C)c1Cl [VIII-45], the “log P (acidic)” value was “logPacicic = 2.97”.
In the case of CCN(Cc1c(S(C)(=O)=O)ccc(C(=O)OC)c1Cl)OC(C)C [VIII-46], the “log P (acidic)” value is reported as “logPacidic = 3.39”.
In the case of COC(=O)c1ccc(S(C)(=O)=O)c(CN(OC(C)C)C(C)C)c1Cl [VIII-47], the “log P (acidic)” value is reported as “logPacidic = 3.86”.
For COC(=O)c1ccc(S(C)(=O)=O)c(CNOC2CCCC2)c1Cl [VIII-48], the “log P (acidic)” value was “logPacidic = 2.93”.
With COC(=O)c1ccc(S(C)(=O)=O)c(CN(C)OC2CCCC2)c1Cl [VIII-49] the “log P (acidic)” value was “logPacidic = 3.48”.
With COC(=O)c1ccc(S(C)(=O)=O)c(CN(OC)C(=O)C(F)(F)F)c1Cl [VIII-50] the “log P (acidic)” value was “logPacidic = 2.60”.
In the case of COC(=O)c1ccc(S(C)(=O)=O)c(CN(OC)C(=O)C(C)C)c1Cl [VIII-51], the “log P (acidic)” value is reported as “logPacidic = 2.21”.
For COC(=O)c1ccc(S(C)(=O)=O)c(CN(OC)C(=O)C2CC2)c1Cl [VIII-52], the “log P (acidic)” value was “logPacidic = 2.02”.
With COC(=O)c1ccc(S(C)(=O)=O)c(CN(CC(=O)N(C)C)OC)c1Cl [VIII-53] the “log P (acidic)” value was “logPacidic = 1.74”.
With COC(=O)c1ccc(S(C)(=O)=O)c(CN(CC2CCOC2)OC)c1Cl (stereo not drawn) [VIII-54] the “log P (acidic)” value was “logPacidic = 2.35”.
With CCON(Cc1c(S(C)(=O)=O)ccc(C(=O)OC)c1Cl)CC1CCOC1 (stereo not drawn) [VIII-55] the “log P (acidic)” value was “logPacidic = 2.60”.
For COC(=O)c1ccc(S(C)(=O)=O)c(CN(CC2CCOC2)OC2CCCC2)c1Cl (stereo not drawn) [VIII-56], the “log P (acidic)” value was “logPacidic = 3.30”.
In the case of COC(=O)c1ccc(S(C)(=O)=O)c(CN(Cc2ccoc2)OC)c1Cl [VIII-57], the “log P (acidic)” value is reported as “logPacidic = 2.91”.
With COC(=O)c1ccc(S(C)(=O)=O)c(CN(OC)C2CCOC2)c1Cl (stereo not drawn) [VIII-58] the “log P (acidic)” value was “logPacidic = 2.17”.
For COC(=O)c1ccc(S(C)(=O)=O)c(CN(OC)C2CCCOC2)c1Cl (stereo not drawn) [VIII-59], the “log P (acidic)” value was “logPacidic = 2.55”.
In the case of COC(=O)c1ccc(S(C)(=O)=O)c(CN(OC)C2CCOCC2)c1Cl [VIII-60], the “log P (acidic)” value is reported as “logPacidic = 2.38”.
In the case of COCCON(C)Cc1c(S(C)(=O)=O)ccc(C(=O)OC)c1Cl [VIII-61], the “log P (acidic)” value is reported as “logPacidic = 2.26”.
With COC(=O)c1ccc(S(C)(=O)=O)c(CNOCCOc2ccccc2)c1Cl [VIII-62] the “log P (acidic)” value was “logPacidic = 2.93”.
For COC(=O)c1ccc(S(C)(=O)=O)c(CN(C)OCCOc2ccccc2)c1Cl [VIII-63], the “log P (acidic)” value was “logPacidic = 3.37”.

Same assay, conditions: HPLC, reversed-phase C 18, 43° C.; mobile phase range not marked
For COC(=O)c1ccc(S(C)(=O)=O)c(CNN2CCNC2=O)c1Cl [VIII-5], the “log P” value was “logP = 1.24”.
In the case of CONCc1c(Cl)ccc(C(=O)OC)c1Cl [VIII-6], the “log P” value is reported as “logP = 2.26”.
In the case of CCONCc1c(Cl)ccc(C(=O)OC)c1Cl [VIII-7], the “log P” value is reported as “logP = 2.77”.
With COC(=O)c1ccc(Cl)c(CN(C)OC)c1Cl [VIII-8] the “log P” value was “logP = 3.08”.
For CCN(Cc1c(Cl)ccc(C(=O)OC)c1Cl)OC [VIII-9], the “log P” value was “logP = 3.72”.
In the case of CONCc1c(S(C)(=O)=O)ccc(C(=O)OC)c1Cl [VIII-10], the “log P” value is reported as “logP = 1.69”.
For CCONCc1c(S(C)(=O)=O)ccc(C(=O)OC)c1Cl [VIII-11], the “log P” value was “logP = 2.05”.
In the case of CCON(CC)Cc1c(S(C)(=O)=O)ccc(C(=O)OC)c1Cl [VIII-12], the “log P” value is reported as “logP = 3.06”.
With CCONCc1c(Cl)ccc(C(=O)OC)c1OC [VIII-13] the “log P” value was “logP = 2.27”.
In the case of CCOC(=O)c1ccc(Cl)c(OCCNS(C)(=O)=O)c1Cl [VIII-14], the “log P” value is reported as “logP = 2.24”.
For CCOC(=O)c1ccc(Cl)c(OCCNS(=O)(=O)CC)c1Cl [VIII-15], the “log P” value was “logP = 2.61”.
For CCOC(=O)c1ccc(Cl)c(OCCNS(=O)(=O)CCl)c1Cl [VIII-16], the “log P” value was “logP = 2.80”.
In the case of CCOC(=O)c1ccc(Cl)c(OCCNS(=O)(=O)CC(F)(F)F)c1Cl [VIII-17], the “log P” value is reported as “logP = 3.08”.
With CCOC(=O)c1ccc(Cl)c(OCCNS(=O)(=O)c2cccs2)c1Cl [VIII-18] the “log P” value was “logP = 3.20”.
In the case of CCCS(=O)(=O)NCCOc1c(Cl)ccc(C(=O)OCC)c1Cl [VIII-19], the “log P” value is reported as “logP = 2.92”.
In the case of CCOC(=O)c1ccc(Cl)c(OCCNS(=O)(=O)C(C)C)c1Cl [VIII-20], the “log P” value is reported as “logP = 2.86”.

Same assay, conditions: reversed-phase C18 HPLC column; HPLC, reversed-phase C 18, 43° C.; acidic range: 0.1% aqueous phosphoric acid, acetonitrile (marked a) or acidic); read-out: log P (acidic)
For CON(Cc1c(S(C)(=O)=O)ccc(C(=O)O)c1Cl)C(C)C [II-3, 2-chloro-4-methylsulphonyl-3-(N-methoxy-N-(1-methylethyl)aminomethyl)benzoic acid], the chromatographic logP was 2.09.
Molecule COC(=O)c1ccc(S(C)(=O)=O)c(CN(OC)C(C)C)c1Cl [VIII-3] has a chromatographic logP of 3.13.

Same assay, conditions: reversed-phase C18 HPLC column; HPLC, reversed-phase C 18, 43° C.; mobile phase range not marked; read-out: log P
With CON(C)Cc1c(Cl)ccc(C(=O)O)c1Cl [II-1, 2,4-dichloro-3-(N-methoxy-N-methylaminomethyl)benzoic acid] the chromatographic logP was 1.99.
CS(=O)(=O)NCCOc1c(Cl)ccc(C(=O)O)c1Cl [II-2, 2,4-dichloro-3-(2-methylsulphonylaminoethoxy)benzoic acid] showed a chromatographic logP of 1.36.
COC(=O)c1ccc(Cl)c(CN(C)OC)c1Cl [VIII-1, methyl 2,4-dichloro-3-(N-methoxy-N-methylaminomethyl)benzoate] showed a chromatographic logP of 3.08.
CCOC(=O)c1ccc(Cl)c(OCCNS(C)(=O)=O)c1Cl [VIII-2, ethyl 2,4-dichloro-3-(2-methylsulphonylaminoethoxy)benzoate] gave a chromatographic logP of 2.35.
